# In ChEMBL document CHEMBL1126957, “Structure-activity relationship within a series of pyrazolidinone antibacterial agents. 1. Effect of nuclear modification on in vitro activity” (1993):
# How the values were obtained:
# Assay type in all cases: functional
# Klebsiella pneumoniae = assay: In vitro antibacterial activity against Klebsiella X26
# Escherichia coli = assay: In vitro antibacterial activity against Escherichia coli EC14
# Streptococcus pneumoniae = assay: In vitro antibacterial activity against Streptococcus pneumoniae PARK
# Staphylococcus aureus = assay: In vitro antibacterial activity against Staphylococcus aureus X1.1
# Klebsiella aerogenes = assay: In vitro antibacterial activity against Enterobacter aerogenes C32
# Serratia marcescens = assay: In vitro antibacterial activity against Serratia X99
# Pseudomonas aeruginosa = assay: In vitro antibacterial activity against Pseudomonas X239
# Haemophilus influenzae = assay: In vitro antibacterial activity against Haemophilus influenza C.L
Structure (SMILES),MIC (Klebsiella pneumoniae),MIC (Escherichia coli),MIC (Streptococcus pneumoniae),MIC (Staphylococcus aureus),MIC (Klebsiella aerogenes),MIC (Serratia marcescens),MIC (Pseudomonas aeruginosa),MIC (Haemophilus influenzae)
CO/N=C(\C(=O)NC1CN2CC(C(=O)OCc3ccccc3)=C(C(=O)O)N2C1=O)c1csc(N)n1 (configuration not stated),64 µg/mL,64 µg/mL,64 µg/mL,128 µg/mL,64 µg/mL,64 µg/mL,> 128 µg/mL,64 µg/mL
CO/N=C(\C(=O)NC1CN2CCC(C(C)=O)=C(C(=O)O)N2C1=O)c1csc(N)n1 (configuration not stated),> 128 µg/mL,> 128 µg/mL,> 128 µg/mL,> 128 µg/mL,> 128 µg/mL,> 128 µg/mL,> 128 µg/mL,> 128 µg/mL
CO/N=C(\C(=O)NC1CN2CC(C(=O)OC)=C(C(=O)O)N2C1=O)c1csc(N)n1 (configuration not stated),8 µg/mL,8 µg/mL,8 µg/mL,> 128 µg/mL,16 µg/mL,8 µg/mL,> 128 µg/mL,32 µg/mL
CCOC(=O)C1=C(C(=O)O)N2C(=O)C(NC(=O)/C(=N\OC)c3csc(N)n3)CN2C1 (configuration not stated),8 µg/mL,16 µg/mL,8 µg/mL,> 128 µg/mL,32 µg/mL,16 µg/mL,> 128 µg/mL,32 µg/mL
CCCOC(=O)C1=C(C(=O)O)N2C(=O)C(NC(=O)/C(=N\OC)c3csc(N)n3)CN2C1 (configuration not stated),8 µg/mL,32 µg/mL,8 µg/mL,> 128 µg/mL,64 µg/mL,32 µg/mL,> 128 µg/mL,32 µg/mL
CCC(=O)C1=C(C(=O)O)N2C(=O)C(NC(=O)/C(=N\OC)c3csc(N)n3)CN2C1 (configuration not stated),2 µg/mL,4 µg/mL,2 µg/mL,64 µg/mL,8 µg/mL,4 µg/mL,> 128 µg/mL,8 µg/mL
CO/N=C(\C(=O)NC1CN2CC(C(C)=O)=C(C(=O)O)N2C1=O)c1csc(N)n1 (configuration not stated),1 µg/mL,2 µg/mL,1 µg/mL,32 µg/mL,2 µg/mL,4 µg/mL,> 128 µg/mL,8 µg/mL
CO/N=C(\C(=O)NC1CN2CCC(C(=O)OC)=C(C(=O)O)N2C1=O)c1csc(N)n1 (configuration not stated),> 128 µg/mL,> 128 µg/mL,> 128 µg/mL,> 128 µg/mL,> 128 µg/mL,> 128 µg/mL,> 128 µg/mL,> 128 µg/mL

# Compounds with a lower MIC (Klebsiella pneumoniae), results first:
MIC (Klebsiella pneumoniae),MIC (Escherichia coli),MIC (Streptococcus pneumoniae),MIC (Staphylococcus aureus),MIC (Klebsiella aerogenes),MIC (Serratia marcescens),MIC (Pseudomonas aeruginosa),MIC (Haemophilus influenzae),Structure (SMILES)
0.25 µg/mL,0.125 µg/mL,0.25 µg/mL,64 µg/mL,0.25 µg/mL,0.25 µg/mL,> 128 µg/mL,2 µg/mL,CO/N=C(\C(=O)NC1CN2CC(S(C)(=O)=O)=C(C(=O)O)N2C1=O)c1csc(N)n1 (configuration not stated)
0.25 µg/mL,0.25 µg/mL,0.25 µg/mL,64 µg/mL,1 µg/mL,1 µg/mL,> 128 µg/mL,0.5 µg/mL,CO/N=C(\C(=O)N[C@H]1CN2CC(C#N)=C(C(=O)O)N2C1=O)c1csc(N)n1
0.125 µg/mL,0.5 µg/mL,0.125 µg/mL,32 µg/mL,1 µg/mL,1 µg/mL,> 128 µg/mL,0.5 µg/mL,CO/N=C(\C(=O)N[C@H]1CN2CC(S(=O)(=O)c3ccccc3)=C(C(=O)O)N2C1=O)c1csc(N)n1
0.125 µg/mL,0.06 µg/mL,0.25 µg/mL,32 µg/mL,0.25 µg/mL,0.125 µg/mL,> 128 µg/mL,0.5 µg/mL,CO/N=C(\C(=O)N[C@H]1CN2CC(S(C)(=O)=O)=C(C(=O)O)N2C1=O)c1csc(N)n1
0.125 µg/mL,0.125 µg/mL,0.125 µg/mL,32 µg/mL,0.25 µg/mL,0.25 µg/mL,> 128 µg/mL,0.5 µg/mL,CCS(=O)(=O)C1=C(C(=O)O)N2C(=O)[C@@H](NC(=O)/C(=N\OC)c3csc(N)n3)CN2C1
0.5 µg/mL,0.5 µg/mL,0.5 µg/mL,64 µg/mL,2 µg/mL,2 µg/mL,> 128 µg/mL,1 µg/mL,CO/N=C(\C(=O)NC1CN2CC(C#N)=C(C(=O)O)N2C1=O)c1csc(N)n1 (configuration not stated)
